Measured values taken from patent publication US20230183243A1, “HETEROARYL DERIVATIVES AND PHARMACEUTICAL COMPOSITION COMPRISING SAME AS ACTIVE INGREDIENT” (VORONOI INC., priority 2019, published 2023).

Key:
[1] = system: MDA-MB-231 cells; experiment: Inhibition of proliferation of triple-negative breast cancer cells, CellTiter-Glo; type: cell-based; settings: Homo sapiens, 120 h; MDA-MB-231, cultured for 5 days
Outline: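 MDA-MB-231 cells pre-cultured 24 h (5% CO2, 37 °C), then exposed to compound for 5 days at 12 three-fold dilutions, final 10 μM to 0.05 nM. Viability read by CellTiter-Glo luminescence after 10 min at 37 °C; growth inhibition calculated relative to untreated solvent-control cells.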

[2] = target: T1, ABL1(F317L)-nonphosphorylated (Homo sapiens, UniProt P00519, F317L); experiment: ScanMAX Kinase panel (DiscoverX); type: binding; settings: read-out: % Cont @ 1 μM
T1 construct: purchased DiscoverX Corp. (ScanMAX Kinase panel, commissioned)
Protocol: (§1) Specifically, the enzyme (kinase) selectivity of the compound of Example 7 selected from the Example compounds of the present invention was measured by commissioning DiscoverX Corp., and an experiment was performed using a panel for ScanMAX™ Kinase analysis.
(§2) In this case, the concentration of a drug treated with the enzyme was set at 1 μM in DMSO, and percent control (% control) was defined in the same manner as in the following Expression 1.
(§3) (Example compound−Positive control)/(Negative control−Positive control)×100 [Expression 1]
(§4) Wherein the positive control represents a compound having a percent control of 0%, and the negative control represents a compound having a percent control of 100% in DMSO. For the enzyme selectivity of the present invention, the compound was also judged to have activity against the corresponding enzyme when the percent control for each of the enzymes was <30% (i.e., less than 30%).
(§5) Further, to evaluate the inhibitory activity of the compound according to the present invention against more enzymes, an experiment was performed as follows. Specifically, the enzyme (kinase) selectivity of the compound of Example 64 selected from the Example compounds of the present invention was measured by commissioning DiscoverX Corp., and an experiment was performed using a panel for ScanMAX™ Kinase analysis. In this case, the concentration of a drug treated with the enzyme was set at 1 μM in DMSO, and the percent control (% control) were defined in the same manner as in the following Expression 1.
as §4, with “<35%” for “<30%”, “35%).” for “30%).”

[3] = target: T2, GRK4 (Homo sapiens, UniProt P32298); experiment: ScanMAX Kinase panel (DiscoverX); type: binding; settings: read-out: % Cont @ 1 μM
T2 construct: purchased DiscoverX Corp. (ScanMAX Kinase panel, commissioned)
T2 sequence (P32298 whole entry): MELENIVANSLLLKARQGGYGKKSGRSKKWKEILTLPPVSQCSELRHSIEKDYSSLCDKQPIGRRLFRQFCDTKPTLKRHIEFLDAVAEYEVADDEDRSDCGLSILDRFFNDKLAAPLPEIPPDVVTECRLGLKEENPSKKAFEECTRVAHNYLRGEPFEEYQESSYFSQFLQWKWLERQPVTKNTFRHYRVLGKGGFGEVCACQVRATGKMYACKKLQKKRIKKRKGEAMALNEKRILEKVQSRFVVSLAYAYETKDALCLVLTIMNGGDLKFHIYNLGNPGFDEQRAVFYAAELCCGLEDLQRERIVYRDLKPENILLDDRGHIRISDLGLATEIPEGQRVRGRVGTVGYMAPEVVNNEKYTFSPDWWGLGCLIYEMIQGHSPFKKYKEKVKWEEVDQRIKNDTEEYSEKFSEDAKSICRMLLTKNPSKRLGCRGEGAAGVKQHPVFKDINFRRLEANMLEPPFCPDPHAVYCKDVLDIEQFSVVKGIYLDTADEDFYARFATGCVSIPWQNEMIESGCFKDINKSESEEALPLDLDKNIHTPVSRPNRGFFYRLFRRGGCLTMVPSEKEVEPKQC
Protocol: as §1, §2, §3, §4, §5
as §4, with “<35%” for “<30%”, “35%).” for “30%).”

[4] = target: T3, JNK1 (Homo sapiens, UniProt P45983); experiment: ScanMAX Kinase panel (DiscoverX); type: binding
T3 construct: purchased DiscoverX Corp. (ScanMAX Kinase panel, commissioned)
Protocol: as §1, §2, §3, §4, §5
as §4, with “<35%” for “<30%”, “35%).” for “30%).”

[5] = target: T4, JNK2 (Homo sapiens, UniProt P45984); experiment: ScanMAX Kinase panel (DiscoverX); type: binding
T4 construct: purchased DiscoverX Corp. (ScanMAX Kinase panel, commissioned)
Protocol: as §1, §2, §3, §4, §5
as §4, with “<35%” for “<30%”, “35%).” for “30%).”

[6] = target: T5, JNK3 (Homo sapiens, UniProt P53779); experiment: ScanMAX Kinase panel (DiscoverX); type: binding
T5 construct: purchased DiscoverX Corp. (ScanMAX Kinase panel, commissioned)
T5 sequence (P53779 whole entry): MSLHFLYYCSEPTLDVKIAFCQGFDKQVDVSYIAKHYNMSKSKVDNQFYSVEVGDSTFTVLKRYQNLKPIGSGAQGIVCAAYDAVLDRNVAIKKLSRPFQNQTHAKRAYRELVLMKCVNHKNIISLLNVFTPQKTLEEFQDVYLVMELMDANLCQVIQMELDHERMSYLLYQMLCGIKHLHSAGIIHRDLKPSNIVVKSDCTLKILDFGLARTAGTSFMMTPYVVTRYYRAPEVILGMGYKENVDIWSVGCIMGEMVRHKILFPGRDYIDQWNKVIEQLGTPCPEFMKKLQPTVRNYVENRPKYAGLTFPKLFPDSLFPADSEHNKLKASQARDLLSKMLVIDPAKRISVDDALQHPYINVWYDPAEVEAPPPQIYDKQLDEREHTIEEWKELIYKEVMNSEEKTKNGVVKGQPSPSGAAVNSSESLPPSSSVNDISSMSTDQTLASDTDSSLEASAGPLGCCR
Protocol: as §1, §2, §3, §4, §5
as §4, with “<35%” for “<30%”, “35%).” for “30%).”

[7] = target: T6, LRRK2(G2019S) (Homo sapiens, UniProt Q5S007, G2019S); experiment: ScanMAX Kinase panel (DiscoverX); type: binding; settings: read-out: % Cont @ 1 μM
T6 construct: purchased DiscoverX Corp. (ScanMAX Kinase panel, commissioned)
T6 sequence (Q5S007 whole entry G2019S): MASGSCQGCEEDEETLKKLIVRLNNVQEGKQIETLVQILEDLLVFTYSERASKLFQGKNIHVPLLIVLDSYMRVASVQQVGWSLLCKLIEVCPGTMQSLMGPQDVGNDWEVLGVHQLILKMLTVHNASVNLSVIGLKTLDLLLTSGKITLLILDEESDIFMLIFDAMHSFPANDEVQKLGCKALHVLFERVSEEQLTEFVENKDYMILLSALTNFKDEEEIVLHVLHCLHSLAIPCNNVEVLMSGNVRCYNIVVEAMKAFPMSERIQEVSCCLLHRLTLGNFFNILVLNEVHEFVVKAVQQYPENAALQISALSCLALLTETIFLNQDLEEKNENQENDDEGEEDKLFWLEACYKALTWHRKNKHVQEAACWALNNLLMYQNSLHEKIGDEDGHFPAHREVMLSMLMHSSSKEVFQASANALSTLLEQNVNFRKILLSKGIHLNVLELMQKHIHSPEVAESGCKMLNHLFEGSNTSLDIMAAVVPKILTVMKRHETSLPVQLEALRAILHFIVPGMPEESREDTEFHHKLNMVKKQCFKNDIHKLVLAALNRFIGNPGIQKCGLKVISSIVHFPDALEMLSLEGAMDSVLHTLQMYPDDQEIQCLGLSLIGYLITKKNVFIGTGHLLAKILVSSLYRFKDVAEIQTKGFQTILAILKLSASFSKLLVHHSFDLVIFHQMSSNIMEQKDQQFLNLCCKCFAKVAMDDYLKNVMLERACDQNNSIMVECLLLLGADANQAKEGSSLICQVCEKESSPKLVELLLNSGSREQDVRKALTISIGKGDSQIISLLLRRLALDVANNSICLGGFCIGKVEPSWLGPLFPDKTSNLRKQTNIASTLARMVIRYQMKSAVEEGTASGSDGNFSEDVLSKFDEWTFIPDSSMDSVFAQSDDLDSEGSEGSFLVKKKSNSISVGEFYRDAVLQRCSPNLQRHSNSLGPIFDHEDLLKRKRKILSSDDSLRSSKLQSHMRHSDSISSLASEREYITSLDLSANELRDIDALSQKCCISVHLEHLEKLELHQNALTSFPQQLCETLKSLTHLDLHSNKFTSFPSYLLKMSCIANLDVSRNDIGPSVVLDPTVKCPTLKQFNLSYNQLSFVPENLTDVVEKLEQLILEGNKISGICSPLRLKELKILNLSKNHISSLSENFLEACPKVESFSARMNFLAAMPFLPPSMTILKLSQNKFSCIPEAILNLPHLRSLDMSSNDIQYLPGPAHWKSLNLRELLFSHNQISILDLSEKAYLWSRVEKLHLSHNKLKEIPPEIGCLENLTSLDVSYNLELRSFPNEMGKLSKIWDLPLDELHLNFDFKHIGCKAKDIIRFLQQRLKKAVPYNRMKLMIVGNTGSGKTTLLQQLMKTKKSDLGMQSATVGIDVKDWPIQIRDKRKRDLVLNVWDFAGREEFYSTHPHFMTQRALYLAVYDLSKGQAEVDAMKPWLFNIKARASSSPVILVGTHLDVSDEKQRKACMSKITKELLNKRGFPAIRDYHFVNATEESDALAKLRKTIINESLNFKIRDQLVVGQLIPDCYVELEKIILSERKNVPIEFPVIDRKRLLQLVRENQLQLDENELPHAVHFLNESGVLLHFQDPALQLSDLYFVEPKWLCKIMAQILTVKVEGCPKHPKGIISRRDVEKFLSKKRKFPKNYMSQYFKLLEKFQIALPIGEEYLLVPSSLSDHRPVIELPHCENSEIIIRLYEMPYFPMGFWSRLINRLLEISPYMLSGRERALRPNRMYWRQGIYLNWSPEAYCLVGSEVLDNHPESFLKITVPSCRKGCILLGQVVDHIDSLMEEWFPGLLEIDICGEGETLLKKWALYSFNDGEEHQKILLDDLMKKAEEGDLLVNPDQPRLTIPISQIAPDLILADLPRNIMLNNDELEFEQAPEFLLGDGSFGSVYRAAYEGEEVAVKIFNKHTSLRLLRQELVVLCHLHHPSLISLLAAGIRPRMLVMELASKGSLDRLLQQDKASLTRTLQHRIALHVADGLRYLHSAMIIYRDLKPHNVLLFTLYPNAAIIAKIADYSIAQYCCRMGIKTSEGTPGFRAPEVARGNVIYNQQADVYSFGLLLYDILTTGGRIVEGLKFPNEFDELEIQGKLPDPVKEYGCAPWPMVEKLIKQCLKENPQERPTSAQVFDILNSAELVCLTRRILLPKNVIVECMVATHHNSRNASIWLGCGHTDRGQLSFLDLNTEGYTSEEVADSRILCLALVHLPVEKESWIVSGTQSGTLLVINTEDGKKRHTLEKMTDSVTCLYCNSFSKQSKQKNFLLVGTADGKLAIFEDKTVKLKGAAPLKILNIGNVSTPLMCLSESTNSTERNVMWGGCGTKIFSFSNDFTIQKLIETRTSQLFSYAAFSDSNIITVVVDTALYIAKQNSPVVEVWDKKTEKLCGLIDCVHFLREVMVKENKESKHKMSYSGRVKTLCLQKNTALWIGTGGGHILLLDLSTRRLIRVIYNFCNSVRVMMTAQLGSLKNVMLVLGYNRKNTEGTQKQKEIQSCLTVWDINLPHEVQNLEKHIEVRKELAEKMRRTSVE
Protocol: as §1, §2, §3, §4, §5
as §4, with “<35%” for “<30%”, “35%).” for “30%).”

[8] = target: T7, MAPKAPK2 (Homo sapiens, UniProt P49137); experiment: ScanMAX Kinase panel (DiscoverX); type: binding; settings: read-out: % Cont @ 1 μM
T7 construct: purchased DiscoverX Corp. (ScanMAX Kinase panel, commissioned)
Protocol: as §1, §2, §3, §4, §5
as §4, with “<35%” for “<30%”, “35%).” for “30%).”

[9] = target: T8, RIPK5 (Homo sapiens, UniProt Q6XUX3); experiment: ScanMAX Kinase panel (DiscoverX); type: binding; settings: read-out: % Cont @ 1 μM
T8 construct: purchased DiscoverX Corp. (ScanMAX Kinase panel, commissioned)
T8 sequence (Q6XUX3 whole entry): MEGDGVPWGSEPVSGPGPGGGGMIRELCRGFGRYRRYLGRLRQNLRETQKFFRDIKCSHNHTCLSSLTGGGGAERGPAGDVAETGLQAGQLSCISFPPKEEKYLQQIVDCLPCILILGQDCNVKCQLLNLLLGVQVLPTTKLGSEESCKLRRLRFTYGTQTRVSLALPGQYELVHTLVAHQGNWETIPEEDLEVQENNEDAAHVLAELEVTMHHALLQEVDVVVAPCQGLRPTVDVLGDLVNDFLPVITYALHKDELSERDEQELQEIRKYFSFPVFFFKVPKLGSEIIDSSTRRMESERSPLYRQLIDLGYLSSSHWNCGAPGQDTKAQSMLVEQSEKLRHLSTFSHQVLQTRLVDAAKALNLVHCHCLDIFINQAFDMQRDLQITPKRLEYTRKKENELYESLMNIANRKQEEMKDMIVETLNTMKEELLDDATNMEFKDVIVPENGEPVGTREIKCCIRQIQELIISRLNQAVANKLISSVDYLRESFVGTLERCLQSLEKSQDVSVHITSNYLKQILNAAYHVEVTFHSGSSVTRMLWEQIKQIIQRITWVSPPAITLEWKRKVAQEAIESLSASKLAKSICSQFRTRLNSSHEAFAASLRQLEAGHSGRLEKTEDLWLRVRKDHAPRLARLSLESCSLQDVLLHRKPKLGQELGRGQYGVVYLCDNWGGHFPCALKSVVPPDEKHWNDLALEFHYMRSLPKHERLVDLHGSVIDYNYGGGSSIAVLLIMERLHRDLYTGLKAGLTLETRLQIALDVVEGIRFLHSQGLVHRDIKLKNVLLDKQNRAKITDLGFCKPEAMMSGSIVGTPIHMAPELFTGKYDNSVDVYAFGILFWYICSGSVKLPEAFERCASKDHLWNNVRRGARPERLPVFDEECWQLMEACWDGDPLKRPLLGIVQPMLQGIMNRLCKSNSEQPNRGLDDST
Protocol: as §1, §2, §3, §4, §5
as §4, with “<35%” for “<30%”, “35%).” for “30%).”

[10] = target: T9, SRPK3 (Homo sapiens, UniProt Q9UPE1); experiment: ScanMAX Kinase panel (DiscoverX); type: binding; settings: read-out: % Cont @ 1 μM
T9 construct: purchased DiscoverX Corp. (ScanMAX Kinase panel, commissioned)
T9 sequence (Q9UPE1 whole entry): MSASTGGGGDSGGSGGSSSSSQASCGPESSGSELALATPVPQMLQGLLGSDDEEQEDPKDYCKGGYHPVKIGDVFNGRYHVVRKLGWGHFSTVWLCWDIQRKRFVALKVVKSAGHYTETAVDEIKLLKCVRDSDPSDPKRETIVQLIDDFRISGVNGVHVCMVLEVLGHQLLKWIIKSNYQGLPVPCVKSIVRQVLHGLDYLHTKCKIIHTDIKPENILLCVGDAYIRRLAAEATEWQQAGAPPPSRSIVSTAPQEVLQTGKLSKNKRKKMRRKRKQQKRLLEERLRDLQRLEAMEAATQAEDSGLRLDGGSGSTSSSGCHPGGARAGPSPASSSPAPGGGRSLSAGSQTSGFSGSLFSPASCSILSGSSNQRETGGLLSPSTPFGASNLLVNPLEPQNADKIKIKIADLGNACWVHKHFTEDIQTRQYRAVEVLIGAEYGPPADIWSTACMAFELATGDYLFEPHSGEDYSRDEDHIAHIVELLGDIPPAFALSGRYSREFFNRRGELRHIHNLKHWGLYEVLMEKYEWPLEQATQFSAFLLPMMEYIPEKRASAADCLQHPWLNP
Protocol: as §1, §2, §3, §4, §5
as §4, with “<35%” for “<30%”, “35%).” for “30%).”

GI50 [1] [nM] | remaining binding at 1 µM [2] [%] | remaining binding at 1 µM [3] [%] | % Cont @ 1 μM [4] [%] | % Cont @ 1 μM [5] [%] | % Cont @ 1 μM [6] [%] | percent of control (kinase binding) at 1 µM [7] [%] | remaining binding at 1 µM [8] [%] | percent of control binding at 1 µM [9] [%] | remaining binding at 1 µM [10] [%] | SMILES
< 100 | 28 | 29 | 2 | 13 | 4.3 | 2.7 | 28 | 17 | 30 | COc1cc(-c2ccnn2C)ccc1Nc1nc(NC2CCCCC2)c2c(C#N)c[nH]c2n1 [Example 7, 4-(cyclohexylamino)-2-((2-methoxy-4-(1-methyl-1H-pyrazol-5-yl)phenyl)amino)-7H-pyrrolo[2,3-d] pyrimidine-5-carbonitrile]
< 100 | 26 | 26 | 0.9 | 4.1 | 1.7 | 17 | 28 | 30 | 28 | COc1cc(N2CCCC2=O)ccc1Nc1cc(NC2CCCCC2)c2c(C#N)c[nH]c2n1 [Example 64, 4-(cyclohexylamino)-6-((2-methoxy-4-(2-oxopyrrolidin-1-yl)phenyl)amino)-1H-pyrrolo[2,3-b] pyridine-3-carbonitrile]
